Reference: patent US9403747B2, “Methods and compositions for treating leukemia” (Golden Biotechnology Corporation, priority 2013, dated 2016)
One block for each compound: values may come before it.

Assays:
H838 = experiment: CCK-8 cell viability assay, H838; assay type: cell-based; settings: Homo sapiens, NCI-H838, 48 h, 48 h treatment; means ± S.E.M.
Protocol: Human hepatoma (HepG2, Hep3B), human lung adenocarcinoma (A549, H838), and human myelogenous leukemia (K562) cell lines were obtained from American Type Culture Collection (Rockville, Md., USA). Human prostate cancer cell lines (LNCaP and DU145), human breast carcinoma (MCF-7), human bladder carcinoma (TSGH 8301) and human pancreas adenocarcinoma (BxPC-3) were obtained from BCRC (Bioresource Collection and Research Center, Hsinchu, Taiwan). HepG2, DU145 and MCF-7 cell lines were cultured in Minimum Essential Medium Alpha (Invitrogen/Gibco BRL, Grand Island, N.Y., USA). A549 cells were cultured in Dulbecco's modified Eagle's medium (Invitrogen/Gibco BRL). […]
Cell viability was measured using Cell Counting Kit-8 (CCK-8, Enzo Life Sciences, Farmingdale, N.Y.). […] The concentration of formazan was measured with a spectrophotometer at an absorbance wavelength of 450 nm. Cell viability was expressed as a percentage of the corresponding control.
To determine whether the cytotoxic effects of Compound 1 correlate with the presence of Ras mutations, cell lines derived from human lung cancer (A549 and H838), liver cancer (HepG2 and Hep3B), and leukemia (K562 and THP-1) with wild-type Ras (H838, Hep3B, and K562) or mutant Ras (A549, HepG2, and THP-1) were used. Cell viability was measured after 48 h of Compound 1 treatment.

THP-1 xenograft = experiment: THP-1 leukemia xenograft model; assay type: in vivo, CB.17 SCID mice; settings: 120 mg/kg PO twice per day, 5 days per week, 4 weeks
Protocol: Six to seven weeks old male CB.17 SCID mice were purchased from BioLasco Taiwan Co., LTD. and quarantined for one week. During experiment period, 5 mice will be housed in one cage. All animals will be hosted in the Da-Hu animal facility in a 12-h light/12-h dark cycle at 19-25° C. Animals have free access to rodent pellet food and water ad libitum. The experimental protocol of animal study was reviewed and approved by the Institutional Animal Care and Use Committee, DCB. Compound 1 was diluted in olive oil to final concentrations of 12 mg/mL.
Tumor cell line: THP-1 cells (leukemia) were cultured in RPMI-1640 medium or DMEM medium which supplemented with 10% heat inactivated fetal bovine serum. The cells were cultured in tissue culture flasks in a humidified incubator at 37° C., in an atmosphere of 5% CO2 and 95% air.
The human cancer cells used for implantation were harvested during log phase growth and resuspended in phosphate buffered saline to a concentration containing 2×10^7 cells/mL of THP-1, in 0.1 mL of a 50% Matrigel solution (BD Biosciences, MA, USA). […] Volume was calculated using the formula: Tumor Volume=(w^2×l)/2 where w=width and l=length in diameter (mm) of the tumor. […]
Tumors were measured twice per week using calipers. […] The body weight change was calculated as the percentage increase in body weight compared to the initial body weight. […]

Ras = experiment: Immunoblot of unprocessed and processed Ras in cancer cell lines; assay type: cell-based, human; settings: H838 cells, 24 h
Protocol: FIG. 2A-C show illustrative effective results of the exemplary Compound 1 inhibiting Ras processing in cancer cell lines. (2A) A549 and H838 cells were treated with different concentrations of Compound 1 and grown under serum (10% FBS) or serum-free (no FBS) conditions for 24 h. (2B) H838, (2C) HepG2 and K562 cells were treated with different concentrations of Compound 1 and grown under serum-free (no FBS) conditions for 24 h. Whole cell lysates were then immunoblotted with a Ras antibody. A duplicate membrane was probed with a GAPDH antibody. The relative expression level of unprocessed to processed Ras was quantified by densitometry. The experiments were conducted three times. […]
FIG. 3A-C show illustrative effective results of Compound 1 inhibiting the prenylation activity of farnesyltransferase in vitro and competes with FPP within cells. […] The relative expression level of unprocessed to processed Ras was quantified by densitometry. […]
Sixty micrograms of total protein lysates measured using a Bradford assay (Sigma-Aldrich, St. Louis, Mo., USA) were resolved on 12.5% SDS-polyacrylamide gels. […] Secondary antibodies were conjugated to horseradish peroxidase, which was detected using a 3,3′-diaminobenzidine substrate kit (Vector Laboratories, Burlingame, Calif.). The immunoreactive bands were quantified by densitometry using Image-Pro Plus software (Media Cybernetics, Silver Spring, Md.). […]

- IC50 (H838): 22.6 ± 6.45 µM
SMILES: COC1=C(OC)C(=O)C(C/C=C(\C)CC/C=C(\C)CCC=C(C)C)=C(C)C1=O [Compound 25, 2,3-dimethoxy-5-methyl-6-((2E,6E)-3,7,11-trimethyldodeca-2,6,10-trienyl)cyclohexa-2,5-diene-1,4-dione]

SMILES: COC1=C(OC)C(O)C(C/C=C(\C)CC/C=C(\C)CCC=C(C)C)C(C)C1=O (stereo not shown) [Compound 1, 4-hydroxy-2,3-dimethoxy-6-methyl-5-(3,7,11-trimethyldodeca-2,6,10-trienyl)cyclohex-2-enone]
- body weight (THP-1 xenograft): almost no body weight changes

SMILES: CC(C)=CCC/C(C)=C/CC/C(C)=C/COP(=O)(O)OP(=O)(O)O [FPP]
- Ras processing, agent alone (Ras): potentiated Ras processing
- FPP concentration neutralizing the effect of Compound 1 on Ras processing (Ras; competition assay): ≥ 10 µM
